# Test results from patent US5618726A, “Biodegradable azo dyes” (priority 1994, dated 1997).
# Assays:
# [1] = system: lignin peroxidase (ligninase, LiP); test: Oxidation of azo dyes and veratryl alcohol by pure lignin peroxidase; type: biochemical, Phanerochaete chrysosporium; details: for Oxidation by ligninase after VA was added: with veratryl alcohol; for Oxidation by ligninase without VA: without veratryl alcohol
# Procedure: Lignin peroxidase activity was determined spectrophotometrically at room temperature with VA as substrate. One unit (U) of enzyme activity was defined as 1 μmole of veratryl aldehyde formed-per-min at pH 3. Simultaneous oxidations of azo dyes and veratryl alcohol were measured using a Hewlett-Packard 8452 diode array spectrophotometer operated in the kinetic mode by a Vectra PC equipped with MS™-DO/UV-VIS software. Azo dye concentrations were determined by measuring absorbances at appropriate maxima.
# After six days of growth, when the specific activity of ligninase reached about 250 U-per-liter, culture filtrates were separated from mycelial debris by filtration. One liter of culture filtrate was concentrated to about 10 ml using an Amicon PM-10 membrane and desalted in 10 mM sodium acetate buffer (pH 6) using a Sephadex G25 NAP10 column. Ligninase isoenzyme was separated from Mn-dependent peroxidases using a Pharmacia fast protein liquid chromatography system equipped with a Mono Q HR 5/5 column. In this study isoforms H2 and H8 were used.
# In vitro studies were limited to dyes 24 and 28. […] FIGS. 6A and 7A show the simultaneous oxidation of azo dyes 24 and 28, respectively, and VA by ligninase. Without VA, azo dye oxidation was limited and terminated more rapidly than in the presence of VA (FIGS. 6B and 7B). When a dye was present in a reaction mixture, the rate of VA oxidation decreased due to an apparent competition for LiPI between these two compounds. The oxidation rate of VA recovered when the azo dye oxidation was completed (FIG. 8). The maximal rate of VA oxidation was about 159 AU (absorption change per-min-per-ml of ligninase solution). Wavelengths of 310 nm for VA, 506 nm for dye 24, and 430 nm for dye 28 oxidations were used in monitoring substrate removal. The oxidation of azo dyes is stimulated by VA in high (200 μM) and low (20 μM) H2 O2 concentrations.
# [2] = system: Phanerochaete chrysosporium; test: Substrate removal / decolorization by P. chrysosporium culture; type: cell-based; details: for % Decolorization, P. chrysosporium: 14 days
# Procedure: Environ. Microbiol., 1981, 42:290-296), with the addition of 75 mg adenine (6-aminopurine) and 27 mg L-phenylalanine-per-liter. This addition accelerated the growth of the fungus without inhibiting ligninase activity. […] […] Cultures were incubated at 37° C. for 7 to 15 days with shaking (250 rpm). Solid agar media were also employed.
# ligninase = test: Oxidation of dyes by P. chrysosporium ligninase (crude preparation); type: biochemical, Phanerochaete chrysosporium; details: for Oxidation rate of azo dyes, P. chrysosporium Ligninase: crude enzyme, conditions specific for ligninase
# Method in brief: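 Crude P. chrysosporium ligninase oxidation of dyes, assayed by a previously reported method; conditions as for acid yellow 9, readings every 30 s for up to 15 minutes.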
# [3] = target: T1, horseradish peroxidase type II (Armoracia rusticana, UniProt P00433); test: Oxidation of azo dyes by horseradish peroxidase preparation; type: biochemical; details: pH 8, 37° C., H2O2
# T1 sequence (P00433 31-338): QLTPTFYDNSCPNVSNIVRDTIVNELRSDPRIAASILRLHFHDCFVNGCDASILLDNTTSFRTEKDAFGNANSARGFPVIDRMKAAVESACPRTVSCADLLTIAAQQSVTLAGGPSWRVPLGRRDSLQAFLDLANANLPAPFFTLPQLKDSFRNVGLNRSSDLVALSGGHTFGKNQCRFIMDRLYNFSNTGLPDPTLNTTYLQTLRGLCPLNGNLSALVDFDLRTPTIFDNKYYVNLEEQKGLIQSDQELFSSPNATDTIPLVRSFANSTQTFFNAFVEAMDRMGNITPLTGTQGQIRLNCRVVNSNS
# Procedure: The reaction was started with the addition of 100 μl of 50 mM H2 O2 and was followed for 1 min at 37° C. Controls were run with no addition of H2 O2 or with the addition of the hemeperoxidase inhibitor KCN (final concentration 25 μM).
# S. chromofuscus A11 = details: for Decolorization of growth medium by S. chromofuscus A11: both 50 and 100 ppm; for Degradation (%) after Streptomyces cultivation, strain A11: streptomyces chromofuscus a11 culture, 336 h
# Procedure: (§1) Microbiol., 1984, 130:2905-2913.
# (§2) Replicate sterile controls also were run in each experiment.
# The Streptomyces were grown on the same media and under the same conditions as previously described. […] Thus, the spectrophotometric assays for substrates 1-12 were carried out at their specific isobastic points. Degradation was calculated as percent of substrates removed from culture broth, considering the evaporation factor (around 10%).
# S. rochei A10 = type: cell-based; details: streptomyces rochei a10 culture, 336 h
# Excerpt: as §1, §2
# S. diastaticus A12 = type: cell-based; details: streptomyces diastaticus a12 culture, 336 h
# Excerpt: as §1, §2
# S. diastaticus A13 = type: cell-based; details: streptomyces diastaticus a13 culture, 336 h
# Excerpt: as §1, §2
# [4] = system: S. chromofuscus A11 extracellular peroxidase; test: Oxidation of azo dyes by S. chromofuscus A11 crude enzyme preparation; type: biochemical, Streptomyces chromofuscus A11; details: pH 8, 37° C., H2O2
# Method in brief: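 Enzyme from 48 h S. chromofuscus A11 culture supernatant, concentrated, ammonium sulfate-precipitated, dialyzed in 20 mM HEPES pH 8; yellow Sephadex G-25 fraction used. Reaction started with 100 μl 50 mM H2O2, followed 1 min at 37° C; controls without H2O2 or with 25 μM KCN.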
# Mn(II)-peroxidase = test: Oxidation of dyes by P. chrysosporium Mn(II)-peroxidase; type: biochemical, Phanerochaete chrysosporium; details: crude enzyme, conditions specific for Mn(II)-peroxidase
# [5] = system: P. chrysosporium ligninolytic culture; type: cell-based, Phanerochaete chrysosporium; details: ten days of growth; for Dye remaining in the cultures, HPLC / Dye remaining in the cultures, Spectrophotometry: initial 200 mg-per-liter; for Bleaching of cultures: 200 mg-per-liter
# Procedure: Decolorization of dyes in cultures were monitored at their absorption maxima at pH 4.5, or using HPLC. A Spherisorb ODS2 C18 column was used for HPLC analysis with a sequence of DMS buffer at pH 4.5 and acetonitrile as solvents (5 min 100% DMS, 15 min 100% acetonitrile, 18 min 100% acetonitrile, 19 min 100% DMS, 20 min 100% DMS, 5 min postran 100% DMS). Peaks were monitored at 260 and 450 nm. Results from spectrophotometric and HPLC methods were compared.
# The initial concentration of dye was 200 mg-per-liter. Numbers represent mg-per-liter of dye remaining in the cultures.
# [6] = beginning concentration 100 ppm
# [7] = beginning concentration 150 ppm
# [8] = beginning concentration 200 ppm
# [9] = beginning concentration 300 ppm
Compound,"% Decolorization, P. chrysosporium ([2]; initial concn 150 ppm)","% Decolorization, P. chrysosporium ([2]; initial concn 300 ppm)","Oxidation rate of azo dyes, P. chrysosporium Ligninase (ligninase)","Oxidation rate of azo dyes, Horseradish peroxidase [3]","Degradation (%) after Streptomyces cultivation, strain A11 (S. chromofuscus A11)","Degradation (%) after Streptomyces cultivation, strain A10 (S. rochei A10)","Degradation (%) after Streptomyces cultivation, strain A12 (S. diastaticus A12)","Degradation (%) after Streptomyces cultivation, strain A13 (S. diastaticus A13)","Oxidation rate of azo dyes, S. chromofuscus peroxidase [4]","Oxidation rate of azo dyes, P. chrysosporium Mn-peroxidase (Mn(II)-peroxidase)","Concentration of substrate after ten days cultivation with P. chrysosporium [2, 6]","Concentration of substrate after ten days cultivation with P. chrysosporium [2, 7]","Concentration of substrate after ten days cultivation with P. chrysosporium [2, 8]","Concentration of substrate after ten days cultivation with P. chrysosporium [2, 9]",Decolorization of growth medium by S. chromofuscus A11 (S. chromofuscus A11),further results
"COc1ccc(CO)cc1OC [Veratryl alcohol, 3,4-dimethoxy benzyl alcohol, reference compound]",,,,,,,,,,,,,,,,"Maximal rate of VA oxidation by ligninase ([1]; absorption change per-min-per-ml of ligninase solution, 310 nm): about 159 AU"
COc1cc(N=Nc2ccc(S(=O)(=O)O)cc2)cc(OC)c1O [compound 4],93%,92%,0.22 μmoles per minute per ml,27.04 μmoles per minute per ml,83%,79%,39%,8%,15.19 μmoles per minute per ml,14.33 μmoles per minute per ml,1.637 ppm,3.763 ppm,4.218 ppm,16.323 ppm,significantly decolorized,
Cc1cc(N=Nc2ccc(S(=O)(=O)O)cc2)cc(C)c1O [compound 3],96%,97%,0.42 μmoles per minute per ml,30.68 μmoles per minute per ml,73%,68%,39%,10%,17.20 μmoles per minute per ml,16.37 μmoles per minute per ml,0.358 ppm,1.223 ppm,1.894 ppm,114.772 ppm,significantly decolorized,
O=S(=O)(O)c1ccc(N=Nc2ccc(N=Nc3c(O)ccc4ccccc34)c(S(=O)(=O)O)c2)cc1 [compound 24],,,,,,,,,,,,,,,,"Oxidation by ligninase after VA was added [1]: total decolorization; Oxidation by ligninase without VA [1]: limited extent; Dye remaining in the cultures, HPLC [5]: 4.43 mg-per-liter; Dye remaining in the cultures, Spectrophotometry [5]: 1.11 mg-per-liter; Bleaching of cultures [5]: completely bleached"
O=C(O)c1nn(-c2ccc(S(=O)(=O)O)cc2)c(O)c1N=Nc1ccc(S(=O)(=O)O)cc1 [compound 28],,,,,,,,,,,,,,,,"Oxidation by ligninase after VA was added [1]: total decolorization; Oxidation by ligninase without VA [1]: limited extent; Dye remaining in the cultures, HPLC [5]: 3.00 mg-per-liter; Dye remaining in the cultures, Spectrophotometry [5]: 2.42 mg-per-liter; Bleaching of cultures [5]: completely bleached"

# Second part, led by results:
"% Decolorization, P. chrysosporium ([2]; initial concn 150 ppm)","% Decolorization, P. chrysosporium ([2]; initial concn 300 ppm)","Oxidation rate of azo dyes, P. chrysosporium Ligninase (ligninase)","Oxidation rate of azo dyes, Horseradish peroxidase [3]","Degradation (%) after Streptomyces cultivation, strain A11 (S. chromofuscus A11)","Degradation (%) after Streptomyces cultivation, strain A10 (S. rochei A10)","Degradation (%) after Streptomyces cultivation, strain A12 (S. diastaticus A12)","Degradation (%) after Streptomyces cultivation, strain A13 (S. diastaticus A13)","Oxidation rate of azo dyes, S. chromofuscus peroxidase [4]","Oxidation rate of azo dyes, P. chrysosporium Mn-peroxidase (Mn(II)-peroxidase)",Compound,"Concentration of substrate after ten days cultivation with P. chrysosporium [2, 6]","Concentration of substrate after ten days cultivation with P. chrysosporium [2, 7]","Concentration of substrate after ten days cultivation with P. chrysosporium [2, 8]","Concentration of substrate after ten days cultivation with P. chrysosporium [2, 9]",Decolorization of growth medium by S. chromofuscus A11 (S. chromofuscus A11),further results
90%,87%,0.00 μmoles per minute per ml,11.94 μmoles per minute per ml,20%,9%,3%,8%,2.00 μmoles per minute per ml,3.54 μmoles per minute per ml,Cc1cc(N=Nc2ccc(S(=O)(=O)O)cc2)ccc1O [compound 5],6.084 ppm,9.870 ppm,14.500 ppm,22.680 ppm,significantly decolorized,
92%,88%,0.88 μmoles per minute per ml,0.10 μmoles per minute per ml,5%,2%,1%,1%,0.13 μmoles per minute per ml,0.26 μmoles per minute per ml,O=S(=O)(O)c1ccc(N=Nc2ccc(O)c(Cl)c2)cc1 [compound 13],7.734 ppm,20.776 ppm,28.216 ppm,20.096 ppm,,
97%,94%,0.72 μmoles per minute per ml,18.19 μmoles per minute per ml,73%,77%,43%,18%,3.68 μmoles per minute per ml,8.19 μmoles per minute per ml,COc1cc(N=Nc2ccc(S(=O)(=O)O)cc2)ccc1O [compound 2],2.493 ppm,6.350 ppm,10.068 ppm,7.318 ppm,,"Degradation by Phanerochaete fungus ([2]; growth period of seven days, starting dye 150-200 ppm (FIG. 3), 10080 min): 90%; Oxidation / decolorization by ligninase (ligninase; pH3, 0.2 mM hydrogen peroxide, 15-minute incubation): not detected"
